Results reported in patent US10039741B2, “Use of delta tocopherol for the treatment of lysosomal storage disorders” (The United States of America, as represented by the …, priority 2010, dated 2018).

Columns and labels:
[1] = tested on: NPC mouse model; details: cited from earlier work
[2] = tested on: NPC cat model; details: cited from earlier work
[3] = tested on: NPCD fibroblasts; experiment: Lysotracker staining assay (lysosome size); assay type: cell-based, human; details: NPCD fibroblasts
Experimental: Lysotracker is fluorescent dye that stains acidic compartments in live cells and is well-retained after aldehyde fixation. We have optimized a lysotracker staining assay to visualize the enlarged lysosome size in the NPC skin fibroblasts by applying appropriate concentration of lysotracker dye in comparison with these normal fibroblast cells. Cells were seeded at 8000 cells/well in 100 μl medium in a black/clear bottom, tissue culture treated plate and cultured overnight or in a dedicated time. The cells were live-stained with 100 u/well 50 nM Lysotracker Red-99 dye (Invitrogen) dissolved medium at 37° C. for 1 hr followed by two-times plate wash with PBS buffer using the plate-inverted centrifugation method. The plate was then added with 100 μl/well 3.2% formaldehyde and 1 μg/ml Hoechst 33342 (Invitrogen) in PBS and incubated at room temperature for 30 minutes. After three times of plate wash with PBS buffer, samples were stored at 4° C. until imaging. Samples were photographed using an IN Cell Analyzer 1000 (GE Healthcare) with a 20× objective equipped with CCD camera. DAPI filter and TRITC filter were used to visualize Hoechst and Lysotracker red, respectively. The images were processed by Adobe Photoshop.

[4] = tested on: NPC patient-derived skin fibroblasts; experiment: Amplex red cholesterol assay (free cholesterol); assay type: cell-based, human; details: NPCD fibroblasts
Text: Free cholesterol accumulation in cells is a hallmark of NPC disease. The Amplex red cholesterol assay was used to screen an approved drug library in the NPC patient-derived skin fibroblasts that have free cholesterol accumulation in late endosome and lysosome. […] We then show δ-tocopherol in the filipin cholesterol staining assay, a method used clinically for NPCD diagnosis. […] Lysosome size is usually enlarged in the NPCD cells using a lysotracker staining assay.
The free cholesterol level in these cells was then measured by a cholesterol oxidase coupled HRP/amplex red detection method with a commercial available kit (Invitrogen). The cells were seeded to black, tissue culture-treated 1536-well plates (Greiner Bio-One, Monroe, N.C.) at 800 cells/well in 5 μl medium by a Multidrop Combi dispenser (Thermo Scientific, Waltham, Mass.) and cultured for 24 hours. The assay plates were added with 23 nl/well of compound DMSO solution using a pintool station (Kalypsys, San Diego, Calif.) and cultured for 3 days. The 1536-well assay plate was washed by a plate-inverted centrifugation method that removing medium by centrifuging plates upside down against a stack of paper towel at 1000 rpm for 1 min followed by addition of 7 μl/well PBS buffer, repeating for two times. The PBS buffer was added with a 45 degree angled dispenser (Kalypsys) or a Multi-Drop Combi dispenser set at medium speed to reduce disturbance to the cells. After the cell wash, 2.5 μl/well of detection mixture from the kit was added followed by 1 hour incubation at 37° C. With the addition of the detection mixture, the cells were lysed by the detergent containing buffer and free cholesterols in cell lysate were oxidized by cholesterol oxidase to produce H2O2 which reacting with amplex red dye in the presence of horseradish peroxidase to yield red fluorescence signal. A ViewLux plate reader (PerkinElmer, Boston, Mass.) was used to measure the fluorescent signal in assay plates with the excitation of 573 nm and emissions of 610 nm.

[5] = tested on: wild type cells; experiment: Lipid measurement by mass spectrometry (GC/MS); assay type: cell-based, human; details: wild type cells; 80 μM α-tocopherol or 40 uM δ-tocopherol for 5 days
Experimental: (§1) Effects of δ-tocopherol and α-tocopherols on (FIG. 4A) free cholesterol, (FIG. 4B) cholesterol ester and (FIG. 4C) sphingomyelin in NPC cells. NPC or WT cells were treated with DMSO, 80 μM α-tocopherol or 40 uM δ-tocopherol for 5 days. Cell pellets were collected and extracted for lipids. FC EC and sphingomyelin levels were measured by GC/MS. (FIG. 4D) Effects of δ-tocopherols and α-tocopherols on cholesterol efflux.
(§2) Cell pellets were collected from 100-mm dishes and washed once with 10 ml PBS. Proteins were assayed using the BCA kit (Sigma-Aldrich) and lipids were extracted by modified Bligh and Dyer procedure (29) from the cells. Internal standards were added based on protein concentration that included N12:0 sphingomyelin, D7-cholesterol, 17:0 cholesterol ester (Avanti Polar Lipids, Inc). A portion of the lipid extract was used for detection of sphingomyelins using direct infusion mass spectrometric assay with lithium hydroxide for facilitating ionization and the rest was used to convert cholesterol and its ester into acetate by derivatization. The derivatization was performed by treating the dried crude lipid extract with solutions of 1 M acetic acid with 1 M DMAP in chloroform and 1 M EDC in chloroform at 50° C. for 2 hours. The derivatized product was extracted with hexane and analyzed by direct infusion mass spectrometric assay with 5% ammonium hydroxide for facilitating ionization.
(§3) A triple-quadrupole mass spectrometer equipped with an electrospray was used for analysis of lipids in positive mode. Sphingomyelins, cholesterol and cholesterol esters were detected by neutral loss scan of 213 (collision energy: 50 V), neutral loss scan of 77 (collision energy: 14 V) and precursor ion scan of m/z 369 (collision energy: 14 V) respectively. Data processing of mass spectrometric analyses including ion peak selection, data transferring, peak intensity comparison and quantitation was conducted using self-programmed Microsoft Excel macros (30).

[6] = tested on: NPC fibroblasts; experiment: Lipid measurement by mass spectrometry (GC/MS); assay type: cell-based, human; details: 80 μM α-tocopherol or 40 uM δ-tocopherol for 5 days
Experimental: as §1, §2, §3

[7] = human plasma, physiological level; cited from earlier work
[8] = tested on: Wolman disease cells; experiment: Amplex-red cholesterol assay (total cholesterol), combination therapy; assay type: cell-based, human
Text: (1) Amplex-red cholesterol assay. This biochemical assay (Invitrogen) uses cholesterol oxidase and a HRP-Amplex-re reporting system to measure the free cholesterol level in cells. With the addition of acid lipase to this assay, that hydrolyzes cholesterol ester to free cholesterol, the level of total cholesterol in cells including the cholesterol ester can be measured. This assay was used for detecting the total cholesterol level of in fibroblasts from patients with Wolman disease.

For OC[C@H]1O[C@@H]2O[C@H]3[C@H](O)[C@@H](O)[C@@H](O[C@H]4[C@H](O)[C@@H](O)[C@@H](O[C@H]5[C@H](O)[C@@H](O)[C@@H](O[C@H]6[C@H](O)[C@@H](O)[C@@H](O[C@H]7[C@H](O)[C@@H](O)[C@@H](O[C@H]8[C@H](O)[C@@H](O)[C@@H](O[C@H]1[C@H](O)[C@H]2O)O[C@@H]8CO)O[C@@H]7CO)O[C@@H]6CO)O[C@@H]5CO)O[C@@H]4CO)O[C@@H]3CO [Beta-cyclodextrin], the cholesterol accumulation [1] is listed as “reduce cholesterol accumulation”, the life span [1] is listed as “increase in life span” and the cholesterol accumulation [2] is listed as “reduce cholesterol accumulation”. The life span [2] was “increase in life span”.

In the case of CC(=O)N[C@@H](CS)C(=O)O [NAc, N-acetyl cysteine, reference compound], the enlarged lysosome size [3] is reported as “did not have any effect” and the “cholesterol amount (cholesterol reduction)” value [4] is reported as “did not have any effect”.

In the case of O=C1O[C@H]([C@@H](O)CO)C(O)=C1O [vitamin C, reference compound], the enlarged lysosome size [3] is reported as “not active” and the “cholesterol amount (cholesterol reduction)” value [4] is reported as “not active”.

With Cc1c(C)c2c(c(C)c1O)CC[C@@](C)(CCC[C@H](C)CCC[C@H](C)CCCC(C)C)O2 [α-tocopherol, reference compound] the “amount of cholesterol ester” value [5] was “significantly reduced”, the sphingomyelin amount [5] was “not significantly changed” and the “amount of cholesterol ester” value ([6]; NPCD cells) was “significantly reduced”. For the same compound, the sphingomyelin amount ([6]; NPCD cells) was “not significantly changed”, the free cholesterol level ([6]; NPCD fibroblasts) was “not statistically different” and the plasma concentration [7] was ~26 µM. For the same compound, the “cholesterol level, sole therapy” value ([8]; 40 μM delta-tocopherol or 80 μM alpha-tocopherol alone) was “cholesterol reduction effect” and the “cholesterol level, combination” value ([8]; alpha-tocopherol 20 uM combined with 10 μM MBCD) was “cholesterol reduction effect”.

With Cc1c(O)cc2c(c1C)O[C@](C)(CCC[C@H](C)CCC[C@H](C)CCCC(C)C)CC2 [γ-tocopherol, reference compound] the EC50 ([4]; Homo sapiens, Skin fibroblast, read-out: EC50, reduction of cholesterol accumulation) was 60 to 80 µM.

In the case of “methyl-beta-cyclodextrin [MBCD, reference compound]”, the cholesterol level ([8]; MBCD at 0.3 mM alone) is reported as “time dependent reduction”.

In the case of vitamin D [reference compound], the enlarged lysosome size [3] is reported as “not active” and the “cholesterol amount (cholesterol reduction)” value [4] is reported as “not active”.

In the case of vitamin K [reference compound], the enlarged lysosome size [3] is reported as “not active” and the “cholesterol amount (cholesterol reduction)” value [4] is reported as “not active”.
